Results published in publication PMC7997579, “Synthetic Lethality in Pancreatic Cancer: Discovery of a New RAD51-BRCA2 Small Molecule Disruptor That Inhibits Homologous Recombination and Synergizes with Olaparib” (Journal of Medicinal Chemistry, 2020).

Test system: RAD51 in BxPC-3 nuclei
Test: Immunofluorescence of RAD51 nuclear localization after cisplatin
Format: cell-based, human
Settings: BxPC-3, 50 μM cisplatin in association with 20 μM 35d
Experimental: Immunofluorescence was used for studying RAD51 nuclear translocation and for evaluating DNA damage through the detection of γH2AX nuclear foci. To visualize RAD51 in cell nuclei, BxPC-3 cells were seeded on glass coverslips placed in a 6-well culture plate (2 × 10^5 cells/well) and allowed to adhere overnight. Cultures were then preincubated with 20 μM 35d for 1 h and subsequently exposed to 50 μM cisplatin for an additional 1.5 h. Medium was removed, and cells were maintained in the presence of 20 μM 35d for 4 h. After this time, cultures growing on coverslips were fixed in PBS containing 1% formalin for 20 min, permeabilized in 70% ethanol, air-dried, and washed twice with PBS. Samples were incubated in 10% bovine serum albumin (BSA) in PBS for 30 min at 37 °C and subsequently exposed to an anti-RAD51 mouse monoclonal antibody (Santa Cruz Biotechnology, 1:1000 in 5% BSA/PBS) overnight at 4 °C. After washing, coverslips were incubated with an anti-mouse FITC-conjugated secondary antibody (1:1000 in 1% BSA/PBS) for 1 h at 37 °C, washed, air-dried, and mounted with a solution of DAPI (2 μg/mL) and DABCO.

**Q.** With `CCC(=O)N1N=C(c2c(-c3ccccc3)c3cc(Cl)ccc3[nH]c2=O)CC1c1ccc(OC)cc1` (stereo not shown) [Compound 35d, 6-Chloro-3-(5-(4-methoxyphenyl)-1-propionyl-4,5-dihydro-1H-pyrazol-3-yl)-4-phenylquinolin-2(1H)-one] as the compound, how does the “RAD51 nuclear foci in cisplatin-treated cells” value read?
**A.** The value was “significantly reduced”.
